Measurements taken from article PMC4685510, “A Cell Biologist’s Field Guide to Aurora Kinase Inhibitors” (Frontiers in Oncology, 2015).

Assays:
Assay in all cases: biochemical
Format in all cases: biochemical
[1] = target: T1, 363 human kinases (including Aurora A/B/C) (Homo sapiens, UniProt P54762); settings: EPHB1, [ATP] 100 µM; for remaining activity at 0.1 µM: 100 nM; for remaining activity at 0.1 µM / remaining activity at 0.5 µM: read-out: % Enzyme Activity (relative to DMSO controls)
T1 sequence (P54762 18-984): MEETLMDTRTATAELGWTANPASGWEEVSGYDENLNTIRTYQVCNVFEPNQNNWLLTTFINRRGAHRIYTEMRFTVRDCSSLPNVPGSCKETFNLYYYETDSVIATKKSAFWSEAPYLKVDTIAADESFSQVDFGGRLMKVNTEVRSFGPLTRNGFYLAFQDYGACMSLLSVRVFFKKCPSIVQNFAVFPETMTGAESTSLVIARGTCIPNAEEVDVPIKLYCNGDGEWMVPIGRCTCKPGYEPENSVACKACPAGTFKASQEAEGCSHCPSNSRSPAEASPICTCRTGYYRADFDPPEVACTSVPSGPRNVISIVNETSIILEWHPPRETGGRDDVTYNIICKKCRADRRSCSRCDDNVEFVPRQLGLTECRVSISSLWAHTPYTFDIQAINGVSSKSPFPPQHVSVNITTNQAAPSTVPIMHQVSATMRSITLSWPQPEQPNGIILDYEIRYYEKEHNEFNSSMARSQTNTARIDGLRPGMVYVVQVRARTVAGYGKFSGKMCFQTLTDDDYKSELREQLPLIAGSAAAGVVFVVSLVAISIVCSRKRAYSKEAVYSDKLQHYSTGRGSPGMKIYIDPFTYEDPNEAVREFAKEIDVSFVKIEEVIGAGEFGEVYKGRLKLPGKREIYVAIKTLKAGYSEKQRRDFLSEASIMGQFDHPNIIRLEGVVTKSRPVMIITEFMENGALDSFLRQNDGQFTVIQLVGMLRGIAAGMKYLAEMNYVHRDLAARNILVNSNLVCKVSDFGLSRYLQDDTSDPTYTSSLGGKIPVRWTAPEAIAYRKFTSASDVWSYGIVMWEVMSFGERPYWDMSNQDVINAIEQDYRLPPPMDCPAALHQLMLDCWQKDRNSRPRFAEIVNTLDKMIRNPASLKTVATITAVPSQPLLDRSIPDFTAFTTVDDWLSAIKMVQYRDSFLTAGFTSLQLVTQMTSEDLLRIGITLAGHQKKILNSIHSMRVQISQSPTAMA
Description: (§1) However, the Aurora A/B selectivity ratios derived from our in vitro and in vivo data can be compared to prioritize inhibitors.

[2] = target: T2, 363 human kinases (including Aurora A/B/C) (Homo sapiens, UniProt Q12852); settings: DLK/MAP3K12, [ATP] 30 µM; for remaining activity at 0.1 µM: 100 nM; for remaining activity at 0.1 µM / remaining activity at 0.5 µM: read-out: % Enzyme Activity (relative to DMSO controls)
T2 sequence (Q12852 1-859): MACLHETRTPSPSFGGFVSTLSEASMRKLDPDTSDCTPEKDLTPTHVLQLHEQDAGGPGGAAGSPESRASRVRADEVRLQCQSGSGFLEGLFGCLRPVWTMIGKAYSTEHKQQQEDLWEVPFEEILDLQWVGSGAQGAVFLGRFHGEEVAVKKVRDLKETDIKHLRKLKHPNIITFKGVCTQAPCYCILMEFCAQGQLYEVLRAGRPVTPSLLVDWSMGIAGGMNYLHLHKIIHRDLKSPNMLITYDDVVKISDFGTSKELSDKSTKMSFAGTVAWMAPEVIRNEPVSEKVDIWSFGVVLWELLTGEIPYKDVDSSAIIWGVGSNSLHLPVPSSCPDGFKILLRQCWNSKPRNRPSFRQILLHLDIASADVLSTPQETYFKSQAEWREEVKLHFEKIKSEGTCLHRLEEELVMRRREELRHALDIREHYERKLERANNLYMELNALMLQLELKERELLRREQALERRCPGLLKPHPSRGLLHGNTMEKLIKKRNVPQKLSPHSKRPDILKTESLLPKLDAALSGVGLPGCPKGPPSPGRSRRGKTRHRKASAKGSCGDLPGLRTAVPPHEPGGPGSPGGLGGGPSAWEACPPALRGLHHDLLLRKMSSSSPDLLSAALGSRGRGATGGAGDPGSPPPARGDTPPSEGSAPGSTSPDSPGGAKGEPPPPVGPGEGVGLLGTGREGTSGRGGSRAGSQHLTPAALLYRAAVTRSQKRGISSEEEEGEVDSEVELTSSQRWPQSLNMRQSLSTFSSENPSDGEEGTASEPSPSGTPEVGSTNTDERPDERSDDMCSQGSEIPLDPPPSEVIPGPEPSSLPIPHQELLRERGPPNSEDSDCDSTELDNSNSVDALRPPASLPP
Description: as §1

[3] = target: T3, 363 human kinases (including Aurora A/B/C) (Homo sapiens, UniProt Q8TDC3); settings: BRSK1, [ATP] 50 µM; for remaining activity at 0.1 µM: 100 nM; for remaining activity at 0.1 µM / remaining activity at 0.5 µM: read-out: % Enzyme Activity (relative to DMSO controls)
T3 sequence (Q8TDC3 1-778): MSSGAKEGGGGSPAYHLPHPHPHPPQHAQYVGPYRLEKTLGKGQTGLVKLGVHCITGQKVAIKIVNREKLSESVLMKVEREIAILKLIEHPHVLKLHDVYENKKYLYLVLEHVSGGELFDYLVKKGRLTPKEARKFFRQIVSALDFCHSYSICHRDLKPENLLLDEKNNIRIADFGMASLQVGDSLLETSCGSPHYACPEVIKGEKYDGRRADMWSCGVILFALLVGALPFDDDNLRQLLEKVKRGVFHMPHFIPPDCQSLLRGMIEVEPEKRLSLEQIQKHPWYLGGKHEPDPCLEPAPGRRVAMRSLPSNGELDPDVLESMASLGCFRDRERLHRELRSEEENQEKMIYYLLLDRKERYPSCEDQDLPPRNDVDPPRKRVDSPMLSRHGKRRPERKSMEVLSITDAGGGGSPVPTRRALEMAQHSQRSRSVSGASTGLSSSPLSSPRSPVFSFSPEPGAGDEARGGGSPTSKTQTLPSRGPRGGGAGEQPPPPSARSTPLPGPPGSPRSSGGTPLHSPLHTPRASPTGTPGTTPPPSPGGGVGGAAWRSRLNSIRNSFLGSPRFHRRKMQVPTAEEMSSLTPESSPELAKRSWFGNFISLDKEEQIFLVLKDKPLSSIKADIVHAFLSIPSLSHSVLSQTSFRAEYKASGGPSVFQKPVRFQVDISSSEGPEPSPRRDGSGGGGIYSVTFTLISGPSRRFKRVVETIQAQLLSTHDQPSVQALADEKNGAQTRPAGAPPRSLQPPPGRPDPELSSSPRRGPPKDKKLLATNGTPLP
Description: as §1

SMILES: CCn1cc(-c2ccnc3[nH]c(-c4cccc(CN(C)C)c4)cc23)c(-c2ccc(NC(=O)N(C)C)cc2)n1 [GSK1070916]
- remaining activity at 0.1 µM [1]: 89.2%
- remaining activity at 0.1 µM [2]: 80.4%
- remaining activity at 0.1 µM [3]: 85.9%

SMILES: O=C(O)[C@]1(Cc2cccc(Nc3nccs3)n2)CC[C@@H](Oc2cccc(Cl)c2F)CC1 [MK-5108]
- remaining activity at 0.1 µM [1]: 42.4%
- remaining activity at 0.5 µM ([1]; 500 nM): 13.9%
- remaining activity at 0.1 µM [2]: 72.1%
- remaining activity at 0.5 µM ([2]; 500 nM): 23.1%
- remaining activity at 0.1 µM [3]: 95.8%
- remaining activity at 0.5 µM ([3]; 500 nM): 82.2%

SMILES: O=C(c1cccc(Cl)c1F)N1CCN(Cc2cccc(Nc3nccs3)n2)CC1 [MK-8745]
- % Enzyme Activity (relative to DMSO controls) ([1]; 500 nM): 65.66%
- remaining activity at 0.5 µM ([1]; 500 nM): 65.9%
- % Enzyme Activity (relative to DMSO controls) ([2]; 500 nM): 53.85%
- remaining activity at 0.5 µM ([2]; 500 nM): 59.2%
- % Enzyme Activity (relative to DMSO controls) ([3]; 500 nM): 97.71%
- remaining activity at 0.5 µM ([3]; 500 nM): 98.2%
